Assay results taken from PubChem BioAssay (NCI).
“And” between values parts separate entries of the source, which are not always exact repeats. Equal entries are not always repeated.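 These data come from cells grown in 96-well plates and exposed to compound for 48 hours at five concentrations. GI50: concentration for 50% inhibition of growth. TGI: concentration producing complete growth inhibition.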

Legend:
Assay in all cases: NCI tumour cell line growth inhibition, 48 h
[1] = test system: BT-549 breast
[2] = test system: HS 578T breast
[3] = test system: MCF7 breast
[4] = test system: NCI/ADR-RES ovarian
[5] = test system: PC-3 prostate
[6] = test system: T-47D breast

| Compound | GI50 [1] | TGI [1] | GI50 [2] | TGI [2] | GI50 [3] | TGI [3] | GI50 [4] | TGI [4] | GI50 [5] | TGI [5] | GI50 [6] | TGI [6] |
| --- | --- | --- | --- | --- | --- | --- | --- | --- | --- | --- | --- | --- |
| Nc1cc2nc3ccccc3sc-2cc1=O | 1.61 µM | 3.32 µM | 2.21 µM | 6.24 µM | 2.38 µM | 9.63 µM | 2.96 µM | 16.7 µM | 1.51 µM | 21.8 µM | 5.96 µM | 33.7 µM |
| Cc1ccc(-c2nnc(-c3ccc4ccccc4c3)o2)cc1 |  | > 93.5 µM |  | > 100 µM |  | > 100 µM |  | > 79.2 µM |  | > 100 µM |  | > 100 µM |
| Cc1cc(=O)n2[nH]c(-c3ccc(C(C)(C)C)cc3)cc2n1 | 17.4 µM | > 100 µM | 3.74 µM | 33.3 µM | 7.43 µM | > 100 µM | 15.9 µM | > 100 µM | 4.13 µM | 40.6 µM | 4.43 µM | 79.8 µM |
| O[C@H]1[C@H]2c3cc4c(cc3CN3CCC(=C[C@@H]1O)[C@H]23)OCO4 |  | 5.43 µM |  | > 28.4 µM |  | 1.71 µM |  | 10.7 µM |  | 5.34 µM |  | > 21.3 µM |
| Oc1ccc(Cl)cc1-c1cc(-c2ccccc2Cl)[nH]n1 | 36 µM | > 100 µM | 7.85 µM | > 100 µM | 0.362 µM | > 100 µM | 8.55 µM | > 100 µM | 3.02 µM | > 100 µM | 1.61 µM | > 100 µM |
| COc1cc2nc(C)nc(N[C@H](C)c3cc(N)cc(C(F)(F)F)c3)c2cc1O[C@H]1CCOC1 | 11.5 µM | 24.2 µM | 14.7 µM | 38.9 µM | 12.9 µM | 31.3 µM | 18.3 µM | 60.9 µM | 10.4 µM | 23.4 µM | 16.3 µM | 41.4 µM |
| CNC(=O)c1ccccc1Nc1nc(Nc2ccc(N3CCOCC3)cc2OC)ncc1Cl | 2.58 µM | > 39.1 µM | 1.7 µM | > 26.4 µM | 0.133 µM | > 50.7 µM | 1.11 µM | > 50.7 µM | 1.39 µM | > 66.9 µM | 1.28 µM | > 36.1 µM |
| Cc1cnc(NC(=O)C(Cc2ccccc2)NC(=O)c2ccccc2)s1 (centres undefined) | 29.1 µM | > 100 µM | 6.69 µM | 35.3 µM | 1.55 µM | 5.12 µM | 4.49 µM | 69.2 µM |  |  | 23.1 µM | 82.6 µM |
| O=C1c2cccnc2-c2nc(-c3ccccc3[N+](=O)[O-])cc3c2c1nc1ccccc13 | 16.7 µM | 73.2 µM | 31.2 µM | 86.4 µM | 3.25 µM | 15.4 µM | 22.3 µM | > 69.3 µM | 19.5 µM | 69.1 µM | 5.3 µM | > 100 µM |
| Cc1cc(=O)[nH]c2cc3oc4ccccc4c3cc12 |  | > 100 µM |  | > 100 µM |  | > 100 µM |  | > 100 µM |  | > 100 µM |  | > 100 µM |
| O=C(Nc1ccc(F)cc1F)c1cc(I)ccc1O | 1.99 µM | 5.16 µM | 2.37 µM | 8.07 µM | 2.77 µM | > 100 µM | 2.92 µM | 33.1 µM | 2.53 µM | 8.73 µM | 1.99 µM | 6.8 µM |
| C=C(CNCCO)[C@@H]1CC[C@]2(CO)CC[C@]3(C)[C@H](CC[C@@H]4[C@@]5(C)CCC(N)C(C)(C)[C@@H]5CC[C@]43C)[C@@H]12 (some centres undefined) | 2.07 µM | 4.9 µM | 2.33 µM | 6.92 µM | 1.77 µM | 3.57 µM | 17 µM | 33.8 µM | 2.36 µM | 11.2 µM | 2.07 µM | 3.95 µM |
| COC(=O)[C@@H](C)C[C@H](Cc1ccc(F)cc1)NC(=O)c1csc([C@@H](C[C@H](C(C)C)N(C)C(=O)[C@@H](NC(=O)[C@H]2CCCCN2C)C(C)C)OC(C)=O)n1 |  | 0.0568 µM and 0.261 µM | 0.00102 µM and 0.00612 µM |  |  | > 16.7 µM |  | > 16.7 µM | 0.00196 µM and 0.00756 µM | > 16.7 µM |  |  |
| COc1cc(/C=C/c2cc(/C=C/c3ccc(O)c(OC)c3)n(C(=O)Nc3ccc(F)cc3)n2)ccc1O | 1.18 µM | > 19.7 µM | 0.689 µM | 6.11 µM | 0.402 µM | 7.66 µM | 0.449 µM | 27.4 µM | 0.957 µM | 12.8 µM | 2.4 µM | 9.99 µM |
| NC1CCC(Nc2nc(NCc3ccc(-c4ccco4)nc3)c3ncn(C4CCCC4)c3n2)CC1 (centres undefined) | 0.0264 µM | 0.0746 µM | 0.0205 µM | 0.0955 µM and 0.347 µM | 0.0267 µM | 1.22 µM |  | 1.39 µM | 0.0307 µM | 0.206 µM and 1.69 µM | 0.0249 µM |  |
| O=C(Nc1ccc(I)cc1)c1cc([N+](=O)[O-])ccc1O | 5.36 µM | 27.1 µM | 3.13 µM | 29.3 µM | 3.93 µM | > 100 µM | 5.85 µM | > 100 µM | 3.42 µM | 23.4 µM | 3.87 µM | > 100 µM |
| COC(=O)Nc1nc2ccc(S(=O)c3ccccc3)cc2[nH]1 (centres undefined) | 3.98 µM | > 100 µM | 19.6 µM | > 100 µM | 3.12 µM | > 100 µM | 3.81 µM | > 100 µM | 6.75 µM | > 100 µM | 4.38 µM | > 100 µM |
| CCOc1ccccc1-n1c(CN2CCN(C(=O)COc3ccc(CNCCCCCCN4C5CCCC4CC(OC(=O)Nc4cc(C)ccc4OC)C5)cc3)CC2)nc2ccccc2c1=O (centres undefined) | 1.72 µM | 3.26 µM | 1.86 µM | 3.94 µM | 0.75 µM | 2.06 µM | 7.04 µM | 19.6 µM | 1.59 µM | 3.61 µM | 1.78 µM | 3.88 µM |
| NC(CSC(c1ccccc1)(c1ccccc1)c1ccc2c(c1)OCO2)C(=O)O (centres undefined) | 0.559 µM | 75.9 µM | 0.392 µM | 24.6 µM | 0.298 µM | 40.2 µM | 4.12 µM | 26.8 µM | 0.521 µM | > 69.6 µM | 0.597 µM | > 67.9 µM |
| c1cc2c(cc1NC1=NCCO1)CCC2 |  |  |  | > 10 µM |  | > 10 µM |  |  |  | > 10 µM |  | > 10 µM |
| COc1ccc(C2=CSc3cc(Cl)c(C)cc3S(=O)(=O)N2C(C)=O)cc1 | 29.9 µM | > 100 µM | 55.2 µM | > 100 µM | 46.2 µM | > 100 µM | 26.8 µM | 66.7 µM | 21.8 µM | 82.1 µM |  |  |
